Results published in ChEMBL document CHEMBL1201862, “PubChem BioAssay data set” (2004).
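Cultured in 96-well plates, cells were exposed to test compound for 48 hours across five concentrations. The concentration for 50% growth inhibition is given as GI50.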 Calls of active or inactive are those of the source. Rule as the data show it: active = GI50 up to about 1.1 µM and inactive = higher.

How the values were obtained:
Assay in all cases: NCI-60 cell line screen, 48 h
[1] = system: CCRF-CEM
[2] = system: RPMI-8226
[3] = system: HOP-92
[4] = system: SK-MEL-2
[5] = system: RXF 393
[6] = system: HCC 2998
[7] = system: HL-60
[8] = system: SW-620
[9] = system: SK-MEL-28
[10] = system: UACC-257
[11] = system: K562
[12] = system: CAKI-1
[13] = system: SF-295
[14] = system: Malme-3M
[15] = system: UACC-62
[16] = system: ACHN
[17] = system: KM12
[18] = system: 786-0
[19] = system: HT-29
[20] = system: SK-OV-3

| Structure (SMILES) | GI50 [1] | GI50 [2] | GI50 [3] | GI50 [4] | GI50 [5] | GI50 [6] | GI50 [7] | GI50 [8] | GI50 [9] | GI50 [10] | GI50 [11] | GI50 [12] | GI50 [13] | GI50 [14] | GI50 [15] | GI50 [16] | GI50 [17] | GI50 [18] | GI50 [19] | GI50 [20] |
| --- | --- | --- | --- | --- | --- | --- | --- | --- | --- | --- | --- | --- | --- | --- | --- | --- | --- | --- | --- | --- |
| c1ccc(COc2ncccc2C2SCCCS2)cc1 | > 100 µM (inactive) | > 100 µM (inactive) | > 100 µM (inactive) | > 100 µM (inactive) | 66.8 µM (inactive) | > 100 µM (inactive) | > 10 µM (inactive) | > 100 µM (inactive) | > 100 µM (inactive) | > 100 µM (inactive) | 96.4 µM (inactive) | > 100 µM (inactive) | > 100 µM (inactive) | > 100 µM (inactive) | > 100 µM (inactive) | > 100 µM (inactive) | > 100 µM (inactive) | > 100 µM (inactive) |  |  |
| CC(=O)Nc1ccc2c(c1)/C(=C\c1ccc([N+](C)(C)C)cc1)c1ccccc1-2 | 22.5 µM (inactive) | 24.9 µM (inactive) | 18.1 µM (inactive) |  | > 100 µM (inactive) | 55.6 µM (inactive) | 24.8 µM (inactive) | 44.1 µM (inactive) | 35.5 µM (inactive) | 30.6 µM (inactive) | 29.6 µM (inactive) | > 100 µM (inactive) | 46.1 µM (inactive) | 39.3 µM (inactive) | 48 µM (inactive) | > 100 µM (inactive) | 31.9 µM (inactive) | 77.8 µM (inactive) | 35.5 µM (inactive) | 61.7 µM (inactive) |
| CC1(C)C(=NN=C(N)N)C(C)(C)C1=NN=C(N)N |  | > 100 µM (inactive) | > 100 µM (inactive) |  | > 100 µM (inactive) | > 100 µM (inactive) | > 100 µM (inactive) | > 100 µM (inactive) | > 100 µM (inactive) | > 100 µM (inactive) | > 100 µM (inactive) | > 100 µM (inactive) | > 100 µM (inactive) | > 100 µM (inactive) | > 100 µM (inactive) | > 100 µM (inactive) | > 100 µM (inactive) | > 100 µM (inactive) | > 100 µM (inactive) | > 100 µM (inactive) |
| BrC1=CC=C2NC=CC3=CC=NC1C32 (configuration not stated) | 6.22 µM (inactive) | 11.4 µM (inactive) | 15.7 µM (inactive) | 18.9 µM (inactive) | 16 µM (inactive) | 35.1 µM (inactive) | 4.08 µM (inactive) | 8.95 µM (inactive) | 37.7 µM (inactive) | 33.5 µM (inactive) | 12.2 µM (inactive) |  | 8.36 µM (inactive) | 27.7 µM (inactive) | 9.53 µM (inactive) | 7.26 µM (inactive) | 24.2 µM (inactive) | 8.34 µM (inactive) | 14.9 µM (inactive) | 25.1 µM (inactive) |
| COC(=O)c1ccccc1/C=C1\Cc2cc(C)c(C)cc2C1=O | > 100 µM (inactive) | > 100 µM (inactive) | 21.2 µM (inactive) | 14 µM (inactive) | 89.1 µM (inactive) | > 100 µM (inactive) | > 100 µM (inactive) | > 100 µM (inactive) | > 100 µM (inactive) | > 100 µM (inactive) | > 100 µM (inactive) | > 100 µM (inactive) | 49.3 µM (inactive) | > 100 µM (inactive) | > 100 µM (inactive) | > 100 µM (inactive) | > 100 µM (inactive) | 54.8 µM (inactive) | > 100 µM (inactive) |  |
| COc1ccccc1Nc1nc(N)nc(N)c1N=O | > 100 µM (inactive) | > 100 µM (inactive) | > 100 µM (inactive) | > 100 µM (inactive) | > 100 µM (inactive) | > 100 µM (inactive) | > 100 µM (inactive) | > 100 µM (inactive) | > 100 µM (inactive) | > 100 µM (inactive) | > 100 µM (inactive) |  | > 100 µM (inactive) | > 100 µM (inactive) | > 100 µM (inactive) | > 100 µM (inactive) | > 100 µM (inactive) | > 100 µM (inactive) | 78.2 µM (inactive) | > 100 µM (inactive) |
| CC#C[P+](c1ccccc1)(c1ccccc1)c1ccccc1 | 0.693 µM (active) |  | 2.16 µM (inactive) | 1.56 µM (inactive) | 5.25 µM (inactive) | 3.52 µM (inactive) | 3.71 µM (inactive) |  | 12.2 µM (inactive) | 2.76 µM (inactive) | 1.95 µM (inactive) | 3.24 µM (inactive) | 2.75 µM (inactive) | 10.4 µM (inactive) | 3.72 µM (inactive) | 3.99 µM (inactive) | 2.88 µM (inactive) | 1.6 µM (inactive) | 3.25 µM (inactive) | 14.6 µM (inactive) |
| CCO/C=C1\N=C(C(Cl)c2ccccc2)OC1=O (configuration not stated) | > 100 µM (inactive) | > 100 µM (inactive) | > 100 µM (inactive) | > 100 µM (inactive) | > 100 µM (inactive) | > 100 µM (inactive) | > 100 µM (inactive) | > 100 µM (inactive) | > 100 µM (inactive) | > 100 µM (inactive) | > 100 µM (inactive) | > 100 µM (inactive) | > 100 µM (inactive) | > 100 µM (inactive) | > 100 µM (inactive) | > 100 µM (inactive) | > 100 µM (inactive) | > 100 µM (inactive) | > 100 µM (inactive) |  |
| Cc1nc2c(cc1OCc1ccccc1)C(=O)C1=C(C2=O)C2OC(=O)CC2OC1(C)C (configuration not stated) | 0.17 µM (active) | 0.368 µM (active) | 0.375 µM (active) | 1.46 µM (inactive) | 0.349 µM (active) | 0.579 µM (active) | 0.0697 µM (active) | 0.322 µM (active) | 0.33 µM (active) | 0.671 µM (active) |  | 0.468 µM (active) |  | 0.474 µM (active) | 0.174 µM (active) | 0.619 µM (active) | 0.531 µM (active) | 0.3 µM (active) | 0.375 µM (active) |  |
| COc1ccc(C(c2ccc3c(c2)OCO3)N2C(=O)CCC2C(=O)O)cc1 (configuration not stated) | > 100 µM (inactive) | > 100 µM (inactive) | > 100 µM (inactive) | > 100 µM (inactive) |  | > 100 µM (inactive) | > 100 µM (inactive) | > 100 µM (inactive) | > 100 µM (inactive) | > 100 µM (inactive) | > 100 µM (inactive) | > 100 µM (inactive) | > 100 µM (inactive) | > 100 µM (inactive) | > 100 µM (inactive) | > 100 µM (inactive) | > 100 µM (inactive) | > 100 µM (inactive) | > 100 µM (inactive) | > 100 µM (inactive) |
| CCNc1ccc2c(c1)Cc1ccccc1-2 | > 100 µM (inactive) | 47.3 µM (inactive) | 21.2 µM (inactive) | 56.1 µM (inactive) | > 100 µM (inactive) | 9.71 µM (inactive) | 37.3 µM (inactive) | 83.6 µM (inactive) | > 100 µM (inactive) | 49.7 µM (inactive) | 27.6 µM (inactive) | 27.2 µM (inactive) | 47.6 µM (inactive) | 67.9 µM (inactive) | 40.7 µM (inactive) | 77.4 µM (inactive) | 26.1 µM (inactive) | > 100 µM (inactive) | 50.5 µM (inactive) |  |
| CNc1cc2oc(=O)cc(C)c2cc1C | > 100 µM (inactive) | > 100 µM (inactive) | 89.3 µM (inactive) | > 100 µM (inactive) | > 100 µM (inactive) | > 100 µM (inactive) | 25.4 µM (inactive) | > 100 µM (inactive) | > 100 µM (inactive) | > 100 µM (inactive) | > 100 µM (inactive) | > 100 µM (inactive) | > 100 µM (inactive) | > 100 µM (inactive) | 72.6 µM (inactive) | > 100 µM (inactive) |  | > 100 µM (inactive) | > 100 µM (inactive) |  |
| O=C1N(c2ccccc2)C(=O)C2(SC=NN2Cc2ccccc2)N1c1ccccc1 (configuration not stated) | > 100 µM (inactive) |  | > 100 µM (inactive) |  | > 100 µM (inactive) | > 100 µM (inactive) | 51.2 µM (inactive) | > 100 µM (inactive) | > 100 µM (inactive) | > 100 µM (inactive) | > 100 µM (inactive) | > 100 µM (inactive) | > 100 µM (inactive) | > 100 µM (inactive) | > 100 µM (inactive) | > 100 µM (inactive) | > 100 µM (inactive) | > 100 µM (inactive) | > 100 µM (inactive) | > 100 µM (inactive) |
| C[C@@H](c1ccccc1)N(CC#N)C1CCC[C@H]1O (some centres not stated) | > 100 µM (inactive) | > 100 µM (inactive) | > 100 µM (inactive) | > 100 µM (inactive) | > 100 µM (inactive) | > 100 µM (inactive) | > 100 µM (inactive) | > 100 µM (inactive) | > 100 µM (inactive) | > 100 µM (inactive) | > 100 µM (inactive) |  | > 100 µM (inactive) | > 100 µM (inactive) | > 100 µM (inactive) | > 100 µM (inactive) | > 100 µM (inactive) | > 100 µM (inactive) | > 100 µM (inactive) | > 100 µM (inactive) |
| CC#C[I+]c1ccccc1 | 4.17 µM (inactive) |  | 16.4 µM (inactive) | 28.1 µM (inactive) | 19.1 µM (inactive) | 20 µM (inactive) | 15 µM (inactive) |  | 23.6 µM (inactive) | 20.9 µM (inactive) | 15.8 µM (inactive) | 14.1 µM (inactive) | 69.3 µM (inactive) | 18.9 µM (inactive) | 22.3 µM (inactive) | 15.7 µM (inactive) | 16.5 µM (inactive) | 14.6 µM (inactive) | 17.3 µM (inactive) | 30.3 µM (inactive) |
